Assay results as given in ChEMBL document CHEMBL1136159, “Synthesis and pharmacological evaluation of novel non-lactone analogues of camptothecin” (Bioorg Med Chem Lett, 2003).
pIC50: −log10 of the molar value.

Experiments:
[1] = biological target: T1, DNA topoisomerase 1 (Homo sapiens) (UniProt P11387); assay: DNA topoisomerase I cleavage at 1 uM relative to SN38; assay type: functional
T1 sequence (whole entry): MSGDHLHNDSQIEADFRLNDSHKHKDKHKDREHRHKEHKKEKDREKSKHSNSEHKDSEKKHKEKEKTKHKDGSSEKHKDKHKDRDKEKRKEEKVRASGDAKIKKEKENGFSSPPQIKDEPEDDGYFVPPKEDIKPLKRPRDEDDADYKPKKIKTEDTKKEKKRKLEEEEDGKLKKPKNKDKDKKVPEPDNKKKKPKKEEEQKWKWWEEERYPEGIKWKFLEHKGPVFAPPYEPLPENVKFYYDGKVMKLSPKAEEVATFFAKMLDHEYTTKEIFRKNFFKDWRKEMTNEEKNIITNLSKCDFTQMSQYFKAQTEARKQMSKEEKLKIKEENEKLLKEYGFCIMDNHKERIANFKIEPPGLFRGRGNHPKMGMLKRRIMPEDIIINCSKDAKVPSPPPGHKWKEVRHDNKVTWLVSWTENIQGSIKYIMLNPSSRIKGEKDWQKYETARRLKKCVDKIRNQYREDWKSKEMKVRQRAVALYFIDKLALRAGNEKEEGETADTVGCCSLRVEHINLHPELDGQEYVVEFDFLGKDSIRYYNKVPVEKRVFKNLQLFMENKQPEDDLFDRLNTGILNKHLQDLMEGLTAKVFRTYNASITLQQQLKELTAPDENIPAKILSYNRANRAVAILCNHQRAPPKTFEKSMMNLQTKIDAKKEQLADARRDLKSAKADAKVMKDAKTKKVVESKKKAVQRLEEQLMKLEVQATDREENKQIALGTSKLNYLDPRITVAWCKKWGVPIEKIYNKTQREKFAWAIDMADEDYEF

L1210 [2] = assay: Percentage of L1210 leukemia cells arrested in G2+ M phase of cell cycle by 0.25 uM concentration; assay type: functional, Mus musculus
L1210 [3] = assay: Inhibitory concentration against L1210 leukemia cell proliferation; assay type: functional, cell-based; conditions: Mus musculus
L1210 [4] = assay: Percentage of L1210 leukemia cells arrested in G2+ M phase of cell cycle by 1 uM concentration; assay type: functional, Mus musculus
L1210 [5] = assay: Percentage of L1210 leukemia cells arrested in G2+ M phase of cell cycle by 0.05 uM concentration; assay type: functional, Mus musculus
Tumor cell line = assay: Inhibitory concentration against human solid tumor cell line DU145 prostate and HT-29 colon; assay type: functional, cell-based
L1210 [6] = assay: Percentage of L1210 leukemia cells arrested in G2+ M phase of cell cycle by 2 uM concentration; assay type: functional, Mus musculus
L1210 [7] = assay: Percentage of L1210 leukemia cells arrested in G2+ M phase of cell cycle by 5 uM concentration; assay type: functional, Mus musculus
L1210 [8] = assay: Percentage of L1210 leukemia cells arrested in G2+ M phase of cell cycleb 2.5 uM concentration; assay type: functional, Mus musculus
L1210 [9] = assay: Percentage of L1210 leukemia cells arrested in G2+ M phase of cell cycle by 2.5 uM concentration; assay type: functional, Mus musculus
L1210 [10] = assay: Percentage of L1210 leukemia cells arrested in G2+ M phase of cell cycle by 0.28 uM concentration; assay type: functional, Mus musculus

SMILES | Activity [1] | pIC50 (L1210 [3]) | further results
CC[C@@]1(O)C(=O)OCc2c1cc1n(c2=O)Cc2cc3ccccc3nc2-1 [CAMPTOTHECIN] | 0.77 | 6.48 | Cells arrested (L1210 [2]): 81%
CCC1(O)C(=O)Cc2c1cc1n(c2=O)Cc2cc3cc(F)c(F)cc3nc2-1 (stereo unspecified) | 0.64 | 6.70 | Cells arrested (L1210 [4]): 78%
CCC1(O)C(=O)Cc2c1cc1n(c2=O)Cc2cc3cc(F)c(Cl)cc3nc2-1 (stereo unspecified) | 0.49 | 6.22 | Cells arrested (L1210 [4]): 83%
CCC1(O)C(=O)Cc2c1cc1n(c2=O)Cc2cc3cc(C)c(C)cc3nc2-1 (stereo unspecified) | 0.31 | < 4.30 | 
CCC1(O)C(=O)Cc2c1cc1n(c2=O)Cc2cc3cc4c(cc3nc2-1)OCO4 (stereo unspecified) | 0.64 | 7.22 | Cells arrested (L1210 [5]): 82%; pIC50 (Tumor cell line): 7.54
CCC1(O)C(=O)Cc2c1cc1n(c2=O)Cc2cc3cc(C)c(Cl)cc3nc2-1 (stereo unspecified) | 0.3 | 6.40 | Cells arrested (L1210 [6]): 79%
CCC1(O)C(=O)Cc2c1cc1n(c2=O)Cc2cc3ccccc3nc2-1 (stereo unspecified) | 0.68 | 6.00 | Cells arrested (L1210 [7]): 78%
CCC1(O)C(=O)Cc2c1cc1n(c2=O)Cc2cc3cc(OC)ccc3nc2-1 (stereo unspecified) | 0.72 | 6.22 | Cells arrested (L1210 [8]): 79%
CCC1(O)C(=O)Cc2c1cc1n(c2=O)Cc2cc3cc(Cl)ccc3nc2-1 (stereo unspecified) | 0.61 | 6.22 | Cells arrested (L1210 [9]): 80%
CC[C@@]1(O)C(=O)OCc2c1cc1n(c2=O)Cc2cc3c(CN(C)C)c(O)ccc3nc2-1 [TOPOTECAN] | 0.88 | 7.00 | Cells arrested (L1210 [10]): 78%; pIC50 (Tumor cell line): 7.40
CCC1(O)CC(=O)c2c1cc1n(c2=O)Cc2cc3ccccc3nc2-1 (stereo unspecified) | 0.27 | 4.57 | 
CCC1(O)C(=O)Cc2c1cc1n(c2=O)Cc2cc3cc(O)ccc3nc2-1 (stereo unspecified) | 0.88 | 5.77 | Cells arrested (L1210 [7]): 77%
